From patent US20240158851A1, “METHOD FOR […] ADDICTION, METHOD FOR SCREENING THERAPEUTIC AGENT FOR DRUG ADDICTION AND PHARMACEUTICAL COMPOSITION FOR PREVENTING OR TREATING DRUG ADDICTION” (KOREA INSTITUTE OF SCIENCE AND TECHNOLOGY, priority 2020, published 2024)

Tests used:
hyperactivity = assay: Open field test of methamphetamine-induced hyperactivity; type: in vivo, mouse; conditions: open field 20 min after methamphetamine 4.0 mg/kg
Procedure: Before methamphetamine injection into each animal model, an open field test was conducted for 20 min to measure the activity of the animal model, which was used as a baseline.
4.0 mg/kg of methamphetamine was administered to the control group (Comparative group 1) and an open field test was again conducted for 20 min to measure the activity of the animal model.
4.0 mg/kg of methamphetamine was administered to the drug addiction animal model (MA) (Comparative group 2) and an open field test was again conducted for 20 min to measure the activity of the animal model.
Finally, the activity of each group was compared with the baseline and the activity increase was expressed as a percentage relative to the baseline.

SYNCRIP [1] = assay: SYNCRIP expression in brain striatum by qPCR; conditions: drug addiction animal model (MA) vs control group
[2] = system: egocentric spatial learning; assay: Water cross maze test of egocentric spatial learning; conditions: probe test after 3 days learning; lentivirus injected into striatum after drug addiction
SYNCRIP [3] = assay: SYNCRIP expression in brain striatum by Western blotting; conditions: drug addiction animal model (MA) vs control group
miR-137 [4] = assay: Serum miR-137 (qPCR) in mild drug-addicted animal model with striatal SYNCRIP overexpression; conditions: mild drug addiction: methamphetamine 1.0 mg/kg i.p. once every other day for 2 weeks; lentivirus into striatum 4 weeks before
miR-137 [5] = assay: miR-137 expression (qPCR) in striatum and serum of methamphetamine drug addiction animal model; conditions: drug addiction animal model (MA) vs control group, gradual ramp-up protocol, one week withdrawal
miR-137 [6] = assay: Serum miR-137 (qPCR) in drug-addicted (gradual ramp-up) animal model with striatal SYNCRIP overexpression; conditions: gradual ramp-up methamphetamine protocol, one week withdrawal; lentivirus into striatum 4 weeks before

CN[C@@H](C)Cc1ccccc1 [methamphetamine]
hyperactivity (activity increase relative to baseline) (hyperactivity): significantly increased
expression level of SYNCRIP in brain striatum (qPCR) (SYNCRIP [1]): decreased but was significantly higher
egocentric spatial learning (percent of mice) [2]: abnormally enhanced
expression level of SYNCRIP in brain striatum (Western blotting) (SYNCRIP [3]): decreased to a significantly lower level
expression level of serum miR-137 (miR-137 [4]): significantly low
expression level of miR-137 in serum (miR-137 [5]; serum): significantly low
expression level of miR-137 in striatum (miR-137 [5]; striatum): significantly high
expression level of miR-137 in serum (miR-137 [6]): significantly reduced
